Experiment [1] addresses T1, H+/K+-ATPase (hog gastric vesicle) (Sus scrofa, UniProt P19156).
T1 construct: used as an enzyme source of the in vitro enzyme reaction assay of proton pump; from tissue; host or cells: hog gastric fundic mucosa, membrane vesicles (sucrose/Ficoll gradient), lyophilized
Put plainly: Inhibitory effects on proton pump (H+/K+-ATPase) activity. In kind it is biochemical. The note with it: K+ stimulated H+/K+-ATPase activity, hog gastric vesicles, Pi measured at 620 nm. On the procedure:
The hog fundic regions containing parietal and peptic cells were scraped with slide-glass. The collected cells were suspended in 10 ml of 0.25M sucrose buffer and homogenized using a tight-fitting Teflon-glass homogenizer. The homogenate was centrifuged for 35 min at 8,000 rpm and the pellet was discarded. The supernatant was further centrifuged for 75 min at 25,000 rpm. The resulting pellets were re-suspended in the sucrose buffer (10 ml), and then the suspension was laid onto discontinuous density gradients consisting of 0.25M sucrose buffer and isolation medium containing 9% Ficoll (w/w). After being centrifuged for 3 hours and 15 minutes at 100,000×g, the material at the interface of sucrose buffer and Ficoll solution was collected and then centrifuged for 40 minutes at 100,000×g. The resulting pellets were re-suspended in 1 ml of 5 mM […] buffer (pH 6.1). This material was lyophilized and stored at −70° C. and used as an enzyme source of the in vitro enzyme reaction assay of proton pump. The inhibitory effects of the compounds of the present invention against proton pump activity were evaluated in 96-well plate. In this assay, the K^+ specific H^+/K^+-ATPase activity was calculated based on the difference between the activity of H^+/K^+-ATPase activity with K^+ and without K^+ ion. In 96-well plate, 1% dimethylsulfoxide (DMSO) in buffer was added to negative and positive control groups and the diluted compounds of the present invention in buffer were added to test group. All assays were performed in 100 μl reaction volume at room temperature, and the hog gastric vesicle was kept in ice before use. […] Then lyophilized vesicle in 5 mM Pipes/Tris buffer (pH 6.1) was pre-incubated in the presence of various concentrations of test compounds. After a 5 minute incubation, negative and positive buffers were respectively added to the previous reaction mixture. As the substrate, ATP was added to the reaction buffer, and incubated for 30 minutes at 37° C. Enzymatic activity was stopped by the addition of colorimetric reagent (2× malachite green, 1× ammonium molybdate, 1× polyvinyl alcohol, 2× H2O) and the amount of mono phosphate (Pi) in the reaction was measured at 620 nm using the micro plate reader (Genios Pro, TECAN). The difference between the Pi production with K^+ and without K^+ is taken as K^+ stimulated H^+/K^+-ATPase activity. The IC50s of test compounds were calculated from each % inhibition value of compounds using the method of Litchfield-Wilcoxon (J. Pharmacol. Exp. Ther. (1949) 96, 99).

Experiment [2] has as its system basal gastric acid secretion in pylorus-ligated rats. Put plainly: Inhibitory effects on basal gastric acid secretion in pylorus-ligated rats (Shay's rat model). It is filed as in vivo, rat (Sprague Dawley). The note with it: oral, one hour before pylorus ligation, total acid output 5 hours after ligation, male SD rats. As for the experimental part: Inhibitory effects of the compounds of the present invention on basal gastric acid secretion were performed according to Shay's rat model (Shay, H., et al., 1945, gastroenterology, 5, 43-61). Male Sprague Dawley (SD) rats (200±10 g body weight) were divided into […] (n=5) and fasted for 24 hours with free access to water. Control group was orally administered with 0.5% methylcellulose alone and the other groups were orally administered with test compounds suspended in 0.5% methylcellulose solution at doses of 1, 3 and 10 mg/kg/5 ml one hour before pylorus ligation.
Under ether anesthesia, the abdomens of the rats were incised and then the pylorus was ligated. 5 hours after ligation, the animals were sacrificed, and the gastric contents were collected. The collected contents were centrifuged at 1,000×g for 10 minutes to obtain the gastric juice. Total acid output was measured by 0.01 N NaOH volume (ueq/ml) for automatic titration of the gastric juice to pH 7.0 and the ED50s of test compounds were calculated using the Litchfield-Wilcoxon method. % inhibitory activity was calculated from the following equation and the results are shown in Table 2.
% inhibitory activity of test compound=(total acid output of control group−total acid output of the group treated with test compounds)/total acid output of control group×100

The target in the next experiment is T2, hog gastric H+/K+-ATPase (Sus scrofa, UniProt P19156).
T2 construct: Gastric vesicles were prepared from hog fundic mucosa; from tissue; host or cells: hog fundic mucosa, gastric vesicles (microsomes), lyophilized
T2 sequence (P19156 2-1034 limits assumed): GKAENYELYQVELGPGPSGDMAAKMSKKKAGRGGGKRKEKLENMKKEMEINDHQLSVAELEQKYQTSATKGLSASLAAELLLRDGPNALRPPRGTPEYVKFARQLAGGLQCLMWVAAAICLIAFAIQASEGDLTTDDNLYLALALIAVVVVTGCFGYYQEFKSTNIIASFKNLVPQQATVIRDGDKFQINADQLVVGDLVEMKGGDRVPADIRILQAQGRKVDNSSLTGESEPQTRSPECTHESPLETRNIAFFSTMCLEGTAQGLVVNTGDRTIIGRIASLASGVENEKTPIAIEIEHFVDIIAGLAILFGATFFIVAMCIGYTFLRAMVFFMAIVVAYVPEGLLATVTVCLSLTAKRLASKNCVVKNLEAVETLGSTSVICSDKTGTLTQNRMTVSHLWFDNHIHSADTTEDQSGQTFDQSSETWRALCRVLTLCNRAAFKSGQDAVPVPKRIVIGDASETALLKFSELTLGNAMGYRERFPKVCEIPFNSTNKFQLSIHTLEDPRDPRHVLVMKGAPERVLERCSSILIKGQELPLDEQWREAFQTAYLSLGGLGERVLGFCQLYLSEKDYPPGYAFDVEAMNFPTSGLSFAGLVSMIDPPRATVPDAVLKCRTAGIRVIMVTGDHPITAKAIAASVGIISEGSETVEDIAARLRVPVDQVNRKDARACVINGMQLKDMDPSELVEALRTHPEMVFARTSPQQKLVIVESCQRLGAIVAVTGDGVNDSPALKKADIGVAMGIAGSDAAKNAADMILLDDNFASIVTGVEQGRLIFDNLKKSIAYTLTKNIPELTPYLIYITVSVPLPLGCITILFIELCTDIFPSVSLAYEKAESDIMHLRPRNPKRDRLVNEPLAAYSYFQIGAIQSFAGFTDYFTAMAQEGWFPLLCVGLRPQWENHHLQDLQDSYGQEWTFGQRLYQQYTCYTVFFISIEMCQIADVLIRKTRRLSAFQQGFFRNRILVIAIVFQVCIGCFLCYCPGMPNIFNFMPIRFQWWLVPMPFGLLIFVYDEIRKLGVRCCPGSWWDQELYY
T2 sequence (P18434 whole entry partner): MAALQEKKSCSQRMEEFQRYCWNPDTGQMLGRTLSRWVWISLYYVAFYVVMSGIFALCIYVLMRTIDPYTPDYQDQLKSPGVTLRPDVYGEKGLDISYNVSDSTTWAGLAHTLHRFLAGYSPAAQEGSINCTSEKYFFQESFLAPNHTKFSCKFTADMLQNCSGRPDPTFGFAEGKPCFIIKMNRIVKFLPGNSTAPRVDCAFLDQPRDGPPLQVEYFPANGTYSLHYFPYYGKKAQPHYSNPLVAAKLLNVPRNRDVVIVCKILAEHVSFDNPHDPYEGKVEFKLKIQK
Put plainly: Reversible inhibition of hog gastric H+/K+-ATPase (washout method). In kind it is biochemical. On the procedure: Gastric vesicles were prepared from hog fundic mucosa using the method of Saccomani et al. (Saccomani G, Stewart H B, Shqw D, Lewin M and Sachs G, Characterization of gastric mucosal membranes. IX. Fraction and purification of K-ATPase-containing vesicles by zonal centrifugation and free-flow electrophoresis technique. Biochem. Biophy. Acta. (BBA)-Biomembranes 465, 311-330, 1977). This material was lyophilized and stored at −70° C. The protein content of gastric vesicles was determined by the Bradford method using bovine serum albumin as a standard (Bradford MM, A rapid and sensitive method for the quantitation of microgram quantities of protein utilizing the principle of protein-dye binding. Anal Biochem. 72, 248-254, 1976).
Activity of H^+/K^+-ATPase in hog microsome (lyophilized vesicle) was measured by the inorganic phosphate released from ATP using an one-step colorimetric detection method at the concentration at which the test compounds have 50% inhibition of the proton pump (Chan K M, Delfert D, and Junger K D, A direct colorimetric assay for Ca^2+-stimulated ATPase activity. Anal Biochem, 157, 375-380, 1986). […]

Broadly, the IC50 is the concentration needed to halve the response being measured. As usually defined, the ED50 is the dose that gives a 50% effect, or the effect in half of the subjects. Lower therefore signals greater potency.

Structures can show the parent of a compound that is named as a salt.

T1 sequence (P19156 2-1034 limits assumed): as the sequence (P19156 2-1034 limits assumed) above
T1 sequence (P18434 whole entry partner): as the sequence (P18434 whole entry partner) above

The compound `Cc1[nH]c2ccnc(N3CCc4ccccc4C3)c2c1C` [Example 1, 2,3-dimethyl-4-(1,2,3,4-tetrahydroisoquinolin-2-yl)-1H-pyrrolo[3,2-c]pyridine] showed an IC50 in experiment [1] of 470 nM. For the compound `COCCn1c(C)c(C)c2c(N3CCc4ccccc4C3)nccc21` [Example 3, 2,3-dimethyl-1-(2-methoxyethyl)-4-(1,2,3,4-tetrahydroisoquinolin-2-yl)-1H-pyrrolo[3,2-c]pyridine hydrochloride], the IC50 in experiment [1] amounted to 2050 nM. `Cc1c(C)n(C)c2ccnc(N3CCc4ccccc4C3)c12` [Example 6, 1,2,3-trimethyl-4-(1,2,3,4-tetrahydroisoquinolin-2-yl)-1H-pyrrolo[3,2-c]pyridine hydrochloride]: in experiment [1], the IC50 amounted to 430 nM. This IC50 lies about 4.8-fold lower than the previous one.

In turn, `CCn1c(C)c(C)c2c(N3CCc4ccccc4C3)nccc21` [Example 7, 1-ethyl-2,3-dimethyl-4-(1,2,3,4-tetrahydroisoquinolin-2-yl)-1H-pyrrolo[3,2-c]pyridine hydrochloride] had an IC50 in experiment [1] of 1030 nM. This IC50 is about 2.4-fold higher than that of the compound before.

Regarding `Cc1c(C)n(CCO)c2ccnc(N3CCc4ccccc4C3)c12` [Example 20, 2,3-dimethyl-1-(2-hydroxyethyl)-4-(1,2,3,4-tetrahydroisoquinolin-2-yl)-1H-pyrrolo[3,2-c]pyridine hydrochloride], in experiment [1], the IC50 was < 4000 nM. Take `Cc1[nH]c2ccnc(N3CCc4ccccc4C3)c2c1Cc1ccccc1.Cl` [Example 55, 3-benzyl-2-methyl-4-(1,2,3,4-tetrahydroisoquinolin-2-yl)-1H-pyrrolo[3,2-c]pyridine hydrochloride]: in experiment [2], the ED50 was 1.6 mg/kg. Moreover, the IC50 in experiment [1] turned out to be 90 nM. In addition, on hog gastric H+/K+-ATPase (after washout, compared with non-treated group), the “inhibition of H+/K+-ATPase activity after washout” value is given as “did not inhibit”. At hog gastric H+/K+-ATPase (before washout, compound at the concentration giving 50% inhibition), the “inhibition of H+/K+-ATPase activity before washout” value came out at 50%. Consider `Cc1c(Cc2ccccc2)c2c(N3CCc4ccccc4C3)nccc2n1C.Cl` [Example 56, 3-benzyl-1,2-dimethyl-4-(1,2,3,4-tetrahydroisoquinolin-2-yl)-1H-pyrrolo[3,2-c]pyridine hydrochloride], for which, in experiment [2], the median effective dose (ED50) came to 2.9 mg/kg. The IC50 in experiment [1] was determined as 230 nM.

As for `Cc1c(Cc2ccccc2)c2c(N3CCc4ccccc4C3)nccc2n1C1CC1` [Example 61, 3-benzyl-1-cyclopropyl-2-methyl-4-(1,2,3,4-tetrahydroisoquinolin-2-yl)-1H-pyrrolo[3,2-c]pyridine hydrochloride], the IC50 in experiment [1] was 280 nM. In other words, the sub-micromolar range. `COCCn1c(C)c(Cc2ccccc2)c2c(N3CCc4ccccc4C3)nccc21` [Example 63, 3-benzyl-1-(2-methoxyethyl)-2-methyl-4-(1,2,3,4-tetrahydroisoquinolin-2-yl)-1H-pyrrolo[3,2-c]pyridine hydrochloride]: the IC50 in experiment [1] was < 4000 nM. `Cc1c(Cc2ccccc2)c2c(N3CCc4ccccc4C3)nccc2n1CC1OCCO1` [Example 65, 3-benzyl-1-([1,3]dioxolan-2-ylmethyl)-2-methyl-4-(1,2,3,4-tetrahydroisoquinolin-2-yl)-1H-pyrrolo[3,2-c]pyridine hydrochloride] returned a 50% inhibitory concentration (IC50) in experiment [1] of 2120 nM. As for `Cc1c(Cc2ccccc2)c2c(N3CCc4ccccc4C3)nccc2n1Cc1ccccc1` [Example 66, 1,3-dibenzyl-2-methyl-4-(1,2,3,4-tetrahydroisoquinolin-2-yl)-1H-pyrrolo[3,2-c]pyridine hydrochloride], the IC50 in experiment [1] is < 4000 nM. Compound `Cc1[nH]c2ccnc(N3CCc4ccccc4C3)c2c1Cc1ccccc1` [Example 70, 3-benzyl-2-methyl-4-(1,2,3,4-tetrahydroisoquinolin-2-yl)-1H-pyrrolo[3,2-c]pyridine sodium] yielded an IC50 in experiment [1] of 220 nM. This counts as sub-micromolar.

For `Cc1[nH]c2ccnc(NCc3ccc(F)cc3)c2c1Cc1ccccc1` [Example 71, 3-benzyl-2-methyl-4-(4-fluorobenzylamino)-1H-pyrrolo[3,2-c]pyridine hydrochloride], the IC50 in experiment [1] turned out to be 530 nM. This IC50 is about 2.4-fold higher than that of the compound before.

Values taken from US8513277B2, “Pyrrolo[3,2-C] pyridine derivatives and processes for the preparation thereof” (Yuhan Corporation, priority 2004, dated 2013).
